Our source for the Ki and Ratio values is ChEMBL document CHEMBL1135227, “Substituted 2-(R)-methyl piperazines as muscarinic M(2) selective ligands” (Bioorg Med Chem Lett, 2002).

For test [1], the target named is T1, Muscarinic acetylcholine receptor M2 (Homo sapiens, UniProt P08172).
T1 sequence (P08172 whole entry): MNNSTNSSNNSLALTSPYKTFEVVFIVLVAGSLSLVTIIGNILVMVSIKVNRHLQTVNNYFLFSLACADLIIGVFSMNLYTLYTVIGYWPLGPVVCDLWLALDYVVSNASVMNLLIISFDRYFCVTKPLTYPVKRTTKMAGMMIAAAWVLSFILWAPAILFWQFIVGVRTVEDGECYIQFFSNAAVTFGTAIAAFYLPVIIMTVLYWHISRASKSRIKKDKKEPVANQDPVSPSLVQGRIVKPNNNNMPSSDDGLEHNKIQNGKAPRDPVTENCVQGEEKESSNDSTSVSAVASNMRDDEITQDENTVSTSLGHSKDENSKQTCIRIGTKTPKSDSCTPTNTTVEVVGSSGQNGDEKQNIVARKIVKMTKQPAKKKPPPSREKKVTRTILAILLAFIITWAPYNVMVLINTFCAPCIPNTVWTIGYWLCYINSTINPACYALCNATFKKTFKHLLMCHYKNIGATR
Put plainly: Binding affinity against human cloned Muscarinic acetylcholine receptor M2.

Test [2] addresses T2, Muscarinic acetylcholine receptor M1 (Homo sapiens) (UniProt P11229).
T2 sequence (whole entry): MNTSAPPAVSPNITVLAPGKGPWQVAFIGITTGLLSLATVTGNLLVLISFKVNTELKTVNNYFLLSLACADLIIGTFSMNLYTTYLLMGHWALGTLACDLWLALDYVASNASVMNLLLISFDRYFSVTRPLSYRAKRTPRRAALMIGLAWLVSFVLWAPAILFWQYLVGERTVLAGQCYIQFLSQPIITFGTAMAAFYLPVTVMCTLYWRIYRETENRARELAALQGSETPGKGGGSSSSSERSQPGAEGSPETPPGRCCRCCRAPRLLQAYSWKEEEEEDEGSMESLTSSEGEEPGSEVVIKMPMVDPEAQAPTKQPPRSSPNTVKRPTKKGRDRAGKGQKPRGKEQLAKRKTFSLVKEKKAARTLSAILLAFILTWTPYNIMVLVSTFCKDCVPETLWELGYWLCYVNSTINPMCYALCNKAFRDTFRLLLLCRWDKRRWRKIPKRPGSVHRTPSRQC
As to the kind of experiment: Ratio of binding affinities at human cloned Muscarinic acetylcholine receptor M1 and human cloned Muscarinic acetylcholine receptor M2.

The target of test [3] is T1, Muscarinic acetylcholine receptor M2. Put plainly: Compound was tested for its binding affinity against cloned human Muscarinic acetylcholine receptor M2.

With `COc1ccc(S(=O)(=O)c2ccc([C@@H](C)N3CCN(C4CCCCC4)[C@H](C)C3)cc2)cc1`, the Ki (in general, the dissociation constant of the complex between target and ligand, obtained from inhibition or displacement) in test [1] was found to be 140 pM. For the same compound, the Ratio in test [2] was determined as 10. For `COc1ccc(S(=O)(=O)c2ccc([C@H](C)N3CCN(C4CCCCC4)C[C@H]3C)cc2)cc1`, affinity in test [1] was put at a Ki of 300 pM. Further, in test [2], the Ratio stood at 44. `CCNC(=O)N1CCC(N2CCN([C@@H](C)c3ccc(S(=O)(=O)c4ccc5c(c4)OCO5)cc3)[C@H](C)C2)CC1` had a Ki in test [1] of 2500 pM. Besides, in test [2], the Ratio is 10.

`C[C@@H]1CN(C2CCN(C(=O)c3ccccc3)CC2)CCN1[C@@H](C)c1ccc(S(=O)(=O)c2ccc3c(c2)OCO3)cc1` had a Ki in test [1] of 900 pM. In addition, the Ratio in test [2] was 32.

In turn, `C[C@@H]1CN(C2CCN(S(=O)(=O)c3ccccc3)CC2)CCN1[C@@H](C)c1ccc(S(=O)(=O)c2ccc3c(c2)OCO3)cc1` registered a Ki in test [1] of 800 pM. Moreover, in test [2], the Ratio was found to be 40. The like results for `CCCCS(=O)(=O)N1CCC(N2CCN([C@@H](C)c3ccc(S(=O)(=O)c4ccc5c(c4)OCO5)cc3)[C@H](C)C2)CC1` were, in that order, 200 pM and 198. For `COc1ccc(S(=O)(=O)c2ccc([C@@H](C)N3CCN(C4CCCCC4)C[C@H]3C)cc2)cc1`, in that order: 150 pM and 30. Turning to `C[C@@H]1CN(C2CCCCC2)CCN1[C@@H](C)c1ccc(S(=O)(=O)c2ccc3c(c2)OCO3)cc1`, in test [1], affinity was put at a Ki of 30 pM. In test [2], the Ratio was 61. Regarding `CCCS(=O)(=O)N1CCC(N2CCN([C@@H](C)c3ccc(S(=O)(=O)c4ccc5c(c4)OCO5)cc3)[C@H](C)C2)CC1`, the Ki in test [1] was determined as 200 pM. Further, the Ratio in test [2] was determined as 281. The like results for `COc1ccc(S(=O)(=O)c2ccc([C@@H](C)N3CCN(C4CCCCC4)[C@@H](C)C3)cc2)cc1` were, in that order, 40 pM and 10. For `C[C@@H]1CN(C2CCNCC2)CCN1[C@@H](C)c1ccc(S(=O)(=O)c2ccc3c(c2)OCO3)cc1`, in that order: 9000 pM and 4. The like results for `COc1ccc(S(=O)(=O)c2ccc(CN3CCN(C4CCCCC4)C[C@H]3C)cc2)cc1` were, in that order, 300 pM and 23. On to `COc1ccc(S(=O)(=O)c2ccc(C(C)N3CCN(C4CCCCC4)CC3)cc2)cc1` (stereo not given), for which the Ratio in test [2] is 10. In the case of `COc1ccc(S(=O)(=O)c2ccc(C(C#N)N3CCN(C4CCCCC4)C[C@H]3C)cc2)cc1` (stereo not given in full), in test [3], affinity was put at a Ki of 160 pM. For the same compound, in test [2], the Ratio was found to be 36. The compound `COc1ccc(S(=O)(=O)c2ccc(C(C#N)N3CCN(C4CCCCC4)C[C@@H]3C)cc2)cc1` (stereo not given in full) showed a Ki in test [1] of 16000 pM. Also, the Ratio in test [2] worked out at 5.

As for `CCCCC(=O)N1CCC(N2CCN([C@@H](C)c3ccc(S(=O)(=O)c4ccc5c(c4)OCO5)cc3)[C@H](C)C2)CC1`, the affinity in test [1], expressed as Ki, was 1300 pM. Also, the Ratio in test [2] is 15.

`CCS(=O)(=O)N1CCC(N2CCN([C@@H](C)c3ccc(S(=O)(=O)c4ccc5c(c4)OCO5)cc3)[C@H](C)C2)CC1`: in test [1], the inhibition constant (Ki) amounted to 700 pM. In test [2], the Ratio is 109. The like results for `C[C@@H]1CN(C2CCCCC2)CCN1[C@H](C)c1ccc(S(=O)(=O)c2ccc3c(c2)OCO3)cc1` were, in that order, 30 pM and 30.
